# Assay results: patent EP4029501A1, “COMBINATION OF POLYAROMATIC UREA DERIVATIVES AND GLUCOCORTICOID OR HDAC INHIBITOR FOR THE TREATMENT OF DISEASES OR CONDITIONS ASSOCIATED WITH MUSCLE CELLS AND/OR SATELLITE CELLS” (Anagenesis Biotechnologies, priority 2021, dated 2022)
# System: muscle progenitors derived from DMD hiPSC
# Assay: Myotube assay: total myotube area per well (alpha-actinin staining)
# Assay type: cell-based, human
# Settings: Homo sapiens, Myotube, 72 h, DMD or WT cell source not given; for Emax: efficacy, MA = normalized Myotube Area, 3 days incubation; for EC50: myogenic activity, half-maximal generation of myotubes, 10 points dose-response 1.5 nM to 30 µM, 3 days
# Summary of the method: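 DMD hiPSC-derived muscle progenitors (NCRM-1 background) plated at 3500 cells/well in K5 medium with 5 µM Y-27632, then exposed to compound at 1.5 nM–30 µM for 3 days at 37°C. Cells fixed on day 7, alpha-actinin-immunostained and total myotube area per well quantified; duplicates averaged, EC50 and normalized myotube area derived.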
SMILES,Emax,EC50
"CSc1cc(Oc2ccnc3[nH]c(=O)cnc23)ccc1NC(=O)Nc1nnc(C(C)(C)C)o1 [(cj), 1-(5-(tert-butyl)-1,3,4-oxadiazol-2-yl)-3-(2-(methylthio)-4-((3-oxo-3,4-dihydropyrido[2,3-b]pyrazin-8-yl)oxy)phenyl)urea]",≥ 75%,≥ 5 µM
"CSc1cc(Oc2ccnc3c2CCC(=O)N3)ccc1NC(=O)Nc1cc(C(C)(C)C)nn1-c1ccccc1 [(an), 1-(3-(tert-butyl)-1-phenyl-1H-pyrazol-5-yl)-3-(2-(methylthio)-4-((7-oxo-5,6,7,8-tetrahydro-1,8-naphthyridin-4-yl)oxy)phenyl)urea]",≥ 75%,< 0.5 µM
"CSc1cc(Oc2ccnc3c2OCC(=O)N3)ccc1NC(=O)Nc1cc(C(C)(C)C)nn1-c1ccccc1 [(ct), 1-(3-(tert-butyl)-1-phenyl-1H-pyrazol-5-yl)-3-(2-(methylthio)-4-((3-oxo-3,4-dihydro-2H-pyrido[3,2-b][1,4]oxazin-8-yl)oxy)phenyl)urea]",≥ 75%,< 0.5 µM
"Cc1cc(NC(=O)Nc2ccc(Oc3ccnc4[nH]c(=O)cnc34)cc2F)n(-c2ccccc2)n1 [(a), 1-(2-fluoro-4-((3-oxo-3,4-dihydropyrido[2,3-b]pyrazin-8-yl)oxy)phenyl)-3-(3-methyl-1-phenyl-1 H-pyrazol-5-yl)urea]",25 to 50%,0.5 to 1 µM
"CSc1cc(Oc2ccnc(NC(C)=O)c2)ccc1NC(=O)Nc1cc(C(C)(C)C)nn1-c1ccccc1 [(aq), N-(4-(4-(3-(3-(tert-butyl)-1-phenyl-1H-pyrazol-5-yl)ureido)-3-(methylthio)phenoxy)pyridin-2-yl)acetamide]",≥ 75%,0.5 to 1 µM
"O=C(Nc1ccc(Oc2ccnc3[nH]c(=O)cnc23)cc1F)Nc1cc(C2CC2)nn1-c1ccccc1 [(e), 1-(3-cyclopropyl-1-phenyl-1 H-pyrazol-5-yl)-3-(2-fluoro-4-((3-oxo-3,4-dihydropyrido[2,3-b]pyrazin-8-yl)oxy)phenyl)urea]",25 to 50%,≥ 5 µM
"CNC(=O)c1cc(Oc2ccc(NC(=O)Nc3cc(C(C)(C)C)nn3-c3ccccc3)c(SC)c2)ccn1 [(br), 4-(4-(3-(3-(tert-butyl)-1-phenyl-1H-pyrazol-5-yl)ureido)-3-(methylthio)phenoxy)-N-methylpicolinamide]",≥ 75%,≥ 5 µM
"CSc1cc(NC(=O)Nc2cc(C(C)(C)C)nn2-c2ccccc2)ccc1Oc1ccnc2[nH]c(=O)cnc12 [(dn), 1-(3-(tert-butyl)-1-phenyl-1H-pyrazol-5-yl)-3-(3-(methylthio)-4-((3-oxo-3,4-dihydropyrido[2,3-b]pyrazin-8-yl)oxy)phenyl)urea]",≥ 75%,0.5 to 1 µM
"CSc1cc(Oc2cccc3[nH]ncc23)ccc1NC(=O)Nc1cc(C(C)(C)C)nn1-c1ccccc1 [(cn), 1-(4-((1H-indazol-4-yl)oxy)-2-(methylthio)phenyl)-3-(3-(tert-butyl)-1-phenyl-1H-pyrazol-5-yl)urea]",50 to 75%,1 to 5 µM
"CC(C)(C)c1cc(NC(=O)Nc2ccc(Oc3ccncc3)cc2F)n(-c2ccccc2)n1 [(ad), 1-(3-(tert-butyl)-1-phenyl-1H-pyrazol-5-yl)-3-(2-fluoro-4-(pyridin-4-yloxy)phenyl)urea]",25 to 50%,0.5 to 1 µM
"CSc1cc(Oc2ccnc3[nH]c(=O)cnc23)ccc1NC(=O)Nc1cc(C(C)(C)C)nn1-c1ccc(F)c(Cl)c1 [(cm), 1-(3-(tert-butyl)-1-(3-chloro-4-fluorophenyl)-1H-pyrazol-5-yl)-3-(2-(methylthio)-4-((3-oxo-3,4-dihydropyrido[2,3-b]pyrazin-8-yl)oxy)phenyl)urea]",≥ 75%,0.5 to 1 µM
"CSc1cc(Oc2ccnc(NC(=O)CO)c2)ccc1NC(=O)Nc1cc(C(C)(C)C)nn1-c1ccccc1 [(dq), N-(4-(4-(3-(3-(tert-butyl)-1-phenyl-1H-pyrazol-5-yl)ureido)-3-(methylthio)phenoxy)pyridin-2-yl)-2-hydroxyacetamide]",≥ 75%,0.5 to 1 µM
"CC(=O)Nc1cc(Oc2ccc(NC(=O)Nc3cc(C(C)(C)C)nn3-c3ccccc3)c(F)c2)ccn1 [(ae), N-(4-(4-(3-(3-(tert-butyl)-1-phenyl-1H-pyrazol-5-yl)ureido)-3-fluorophenoxy)pyridin-2-yl)acetamide]",50 to 75%,≥ 5 µM
"CSc1cc(Oc2ccnc(C(=O)Nc3ccccc3)c2)ccc1NC(=O)Nc1cc(C(C)(C)C)nn1-c1ccccc1 [(co), 4-(4-(3-(3-(tert-butyl)-1-phenyl-1H-pyrazol-5-yl)ureido)-3-(methylthio)phenoxy)-N-phenylpicolinamide]",25 to 50%,≥ 5 µM
"CSc1cc(Oc2ccnc3c2CCC(=O)N3)ccc1NC(=O)Nc1cncc(C(F)(F)F)c1 [(cg), 1-(2-(methylthio)-4-((7-oxo-5,6,7,8-tetrahydro-1,8-naphthyridin-4-yl)oxy)phenyl)-3-(5-(trifluoromethyl)pyridin-3-yl)urea]",≥ 75%,≥ 5 µM
"CCC(C)c1cc(NC(=O)Nc2ccc(Oc3ccnc4[nH]c(=O)cnc34)cc2F)n(-c2ccccc2)n1 (centres unmarked) [(c), 1-(3-(sec-butyl)-1-phenyl-1 H-pyrazol-5-yl)-3-(2-fluoro-4-((3-oxo-3,4-dihydropyrido[2,3-b]pyrazin-8-yl)oxy)phenyl)urea]",50 to 75%,≥ 5 µM
"CC(C)(C)c1cc(NC(=O)Nc2ccc(Oc3ccnc4[nH]c(=O)cnc34)cc2F)n(-c2ccc3ncccc3c2)n1 [(n), 1-(3-(tert-butyl)-1-(quinolin-6-yl)-1 H-pyrazol-5-yl)-3-(2-fluoro-4-((3-oxo-3,4-dihydropyrido[2,3-b]pyrazin-8-yl)oxy)phenyl)urea]",≥ 75%,< 0.5 µM
"CC(C)(C)c1cc(NC(=O)Nc2cc(Oc3ccnc4[nH]c(=O)cnc34)ccc2F)n(-c2ccccc2)n1 [(cq), 1-(3-(tert-butyl)-1-phenyl-1 H-pyrazol-5-yl)-3-(2-fluoro-5-((3-oxo-3,4-dihydropyrido[2,3-b]pyrazin-8-yl)oxy)phenyl)urea]",≥ 75%,0.5 to 1 µM
"CSc1cc(Oc2ccncc2)ccc1NC(=O)Nc1cc(C(C)(C)C)nn1-c1ccccc1 [(dk), 1-(3-(tert-butyl)-1-phenyl-1 H-pyrazol-5-yl)-3-(2-(methylthio)-4-(pyridin-4-yloxy)phenyl)urea]",25 to 50%,≥ 5 µM
"O=C(Nc1ccc(Oc2ccnc3[nH]c(=O)cnc23)cc1F)Nc1c2c(nn1-c1ccccc1)CCC2 [(x), 1-(2-fluoro-4-((3-oxo-3,4-dihydropyrido[2,3-b]pyrazin-8-yl)oxy)phenyl)-3-(2-phenyl-2,4,5,6-tetrahydrocyclopenta[c]pyrazol-3-yl)urea]",25 to 50%,≥ 5 µM
"CC(C)(C)c1cc(NC(=O)Nc2ccc(Oc3ccnc4[nH]c(=O)cnc34)c(OC(F)(F)F)c2)n(-c2ccccc2)n1 [(cp), 1-(3-(tert-butyl)-1-phenyl-1H-pyrazol-5-yl)-3-(4-((3-oxo-3,4-dihydropyrido[2,3-b]pyrazin-8-yl)oxy)-3-(trifluoromethoxy)phenyl)urea]",50 to 75%,0.5 to 1 µM
"CSc1cc(Oc2ccnc3[nH]c(=O)cnc23)ccc1NC(=O)Nc1cc(C(C)(C)C)nn1-c1ccccn1 [(ar), 1-(3-(tert-butyl)-1-(pyridin-2-yl)-1H-pyrazol-5-yl)-3-(2-(methylthio)-4-((3-oxo-3,4-dihydropyrido[2,3-b]pyrazin-8-yl)oxy)phenyl)urea]",≥ 75%,≥ 5 µM
